Test [1] relates to mouse HSP-70 gene promoter in mouse fibroblast L929 cells. Put plainly: HSP-70 promoter-luciferase reporter gene assay. In kind it is cell-based. Particulars: Control = 100; 10 μl of 10^-2 M solution to 1 ml culture, 30 min, 1 hour regeneration. From the text:
The activity of HSP-70 was studied by reporter gene assay forming a DNA hybrid. To the promoter sequence of HSP-70 encoding the heat shock protein was fused a gene of a protein that can be detected by a well-measurable enzyme activity. Biotechnological processes were used. As reporter gene luciferase enzyme was employed, the activity of which can be well determined by luminescence measurement. If the promoter of the gene of the luciferase enzyme is substituted by the promoter of the HSP-70 gene, then the change in the activity of the luciferase enzyme i.e. the change of the frequency of the transcription from the gene correlates with the frequency of the transcription of the HSP-70 gene that proceeds in the given circumstances. In this way, if a substance or process influences the expression of the HJSP-70 gene, the effect can be studied through the measurement of the luciferase enzyme activity. The effect of the substances to be tested on the HSP-70 expression was studied in such an experimental system.
A double-stranded DNA circular molecule i.e. a plasmid containing the HSP-70 reporter gene was constructed to perform the measurements. An almost 600 bp long sequence of the mouse HSP-70 gene promoter (5′ direction from the start site of the gene) was fused to the coding sequence of the luciferase gene originated from Photymus pyralis. The applied promoter sequence contained several protein binding sites facilitating the expression of the HSP-70 gene. The HSP promoter-luciferase heterologous gene construct was built in a pBR based plasmid vector that can be selected for neomycin. This HSP-70-luciferase plasmid was transfected into mouse fibroblast L929 cells. The assay was performed as follows.
The HSP-70-luc plasmid containing L929 cells are grown in DMEM (Dulbecco's Modified Eagle's Medium) medium supplemented with 5% FCS (Fetal Calf Serum). 10^4 cells are plated in the wells of a 24-well Costar cell culture plate in 1 ml of culture medium. Test substances are dissolved in PBS (Phosphate Buffered Saline) in 10^−2 M concentration. After attachment of the cells (3-4 hours after plating) 10 μl of the solution are given to the cultures and cells are incubated for 30 min. at 37° C. in a CO2 thermostat. Culture medium is then changed for fresh one (without test substance) and cells are allowed to regenerate for 1 hour at 37° C., then once washed with PBS. After removal of PBS 40 μl of 1× lysis buffer are added to the cells, and the samples are kept on ice for 30 minutes. Then the samples are transferred into Eppendorf vials and centrifuged at 14000 rpm for 20 min at 4° C. 5 μl of the supernatant is added to 25 μl of luciferase assay buffer and the luminescence of the samples is measured for 25 seconds in a luminometer.
In general terms: Reporter assays use an easily measured gene product as a stand-in for the process of interest.

Test [2] deals with T1, poly-ADP-ribose polymerase from rat liver (Rattus norvegicus, UniProt P27008).
T1 construct: We have isolated the poly-ADP-ribose polymerase from rat liver; from tissue; host or cells: rat liver
The test is described as follows: In vitro PARP inhibition on isolated enzyme. It counts as biochemical. As to conditions: isolated rat liver enzyme; ± SEM from four parallel measurements; read-out: PARP I0.5 mg/l (converted). As for the experimental part:
We have isolated the poly-ADP-ribose polymerase from rat liver according to the article Shah.G. M.,Anal Biochem, 227, 1-13 (1995).
We have determined the PARP activation in 130 μl of reaction mixture, which consists of: 100 mM Tris-HCl puffer, pH 8.0, 10 mM MgCl2, 10% glycerol, 1.5 mM DTT, 100 μg of (32P), or (3H), NAD+, 10 μg of histone. We have stopped the reaction after 10 minutes with 8% perchloric acid and seperated the protein through centrifugation (10 minutes, 10.000×g). We have washed the precipitate with 8% perchloric acid, and we measured the radioactivity connected to the protein with scintillation counter.

Test [3] concerns male SPRD rats. The test is described as follows: Reperfusion induced arrhythmia after LAD occlusion, survival rate. In kind it is in vivo, rat. As to conditions: for responders at 5 mg/kg / responders at 1 mg/kg: Rattus norvegicus, iv, read-out: % SURV; for responders at 5 mg/kg: control 15.38; for effect on survival of reperfusion arrhythmia, in words: compared with Example 2 (100% survival). On the procedure: Experiments were carried out in male SPRD rats (acceptable body weight range: 300-350 g). The animals were anesthetized with sodium pentobarbital (Nembutal®: 60 mg/kg intraperitoneally) and remained breathing spontaneously. The animals were ventilated with respirator (MTA Kutesz) by using trachea cannule which was inserted after tracheotomy. The standard lead of the ECG II is monitored. Right femoral artery was catheterized and connected to a pressure transducer (BPR-01, Experimetria, Hungary), a preamplifier and pulsotachometer (HG-M, Experimetria, Hungary) for arterial blood pressure and heart rate measurement, respectively. The external jugular vein was cannulated for drug administration. After thoracotomy a silk (braided, coated 4-0) was placed under the left anterior coronary (LAD) artery. After a few minutes' stabilization period, a 5 min occlusion of LAD artery was applied, followed by a 10 min reperfusion period. The survival rate was evaluated.

Test [4] concerns the target Moloney murine leukemia virus reverse transcriptase (Moloney murine leukemia virus, UniProt P03355). The test is described as follows: Reverse transcriptase inhibition, (3H)dTTP incorporation. It counts as biochemical. As to conditions: for inhibition at 1 µg/mL: concentration 1.0 μg/ml; for inhibition at 2 µg/mL: concentration 2 μg/ml; for reverse transcriptase inhibiting effect compared with Nevirapin and AZT, in words: dose dependent, lower than AZT; for inhibition at 0.5 µg/mL: concentration 0.5 μg/ml. On the procedure: The compounds may be sorted into group of the non-nucleoside type reverse transcriptase inhibitors. Tests were performed on Moloney murine leukemia virus reverse transcriptase that is considered as a good model of the HIV reverse transcriptase enzyme. The experimental assembly was the following.
The assay measures the incorporation of (3H)dTTP into cDNA using poly(dA) template and oligo(dT)12-18 primer. The reaction was carried out in 20 μl volume.
The reaction was started by addition of 5U reverse transcriptase
The reaction mixture was incubated for 40 min at 37° C. Then 15 μl of the reaction mixture was loaded on Whatman DE81 filter discs and filters were washed sequentially with 5% disodium hidrogen phosphate buffer, with water and with 96% (v/v) ethanol. After drying, the filters were placed into scintillation cocktail (OptiPhase, HiSafe, Wallac) and the radioactivity was measured in a Packard Tri-Carb 2200 scintillation counter.
Two compounds with known inhibitory activity were used in the experiments as positive control. AZT is a nucleoside analog while the compound Nevirapin is a non-nucleoside type inhibitor. Nevirapine binds to the so called benzodiazepine binding site of the enzyme. The applied concentrations of the test compounds were in the 0.2-2 μg/ml concentration range.

Test [5] deals with carnitine-palmitoyl transferase (CPTI). The test is described as follows: Determination of CPTI inhibition. It counts as biochemical. Particulars: None = 100; sub-millimolar concentration range.
Test [6] deals with HepG2 cells. Put plainly: LDH enzyme activity in hypoxia exposed HepG2 cells. In kind it is cell-based. Particulars: Homo sapiens, 30 μg/ml, hypoxia 1% O2 24 hours, Hypoxic control = 100, read-out: Relative LDH content, %. On the procedure: HepG2 cell were cultured in DMEM medium supplemented with 10% FCS in 5% CO2 containing air at 37° C. 10^5 cells were plated in the wells of Costar 24-well culture plates in 1 ml medium. On the following day, cells were treated with the test compounds in a concentration of 30 μg/ml, then cells were exposed to hypoxia treatment (1% O2, 5% CO2 in nitrogen gas) for 24 hours. A part of the control cultures were treated with water used as the solvent, and another part of them was not exposed to hypoxia. At the end of the hypoxic treatment, medium was removed and cells were washed twice with cold PBS. Cells lysates were prepared in 0.05% Triton X-100 containing phosphate buffer (0.05 M) and after centrifugation (2 min. […]) the LDH activity of the supernatant was determined on the basis of NADH consumption in the presence of sodium piruvate substrate.
The LDH activity of the cells treated with the test compounds and compared to the activity of the control exposed to hypoxia is shown in Table 6.

Test [7] has as its system CD-1 female mice. The test is described as follows: Prevention of streptozotocin (SZ)-induced type I diabetes mellitus on mice, blood glucose. In kind it is in vivo, mouse. On the procedure:
The experiments were carried out on CD-1 female mice weighing 17-19 g (Charles River, Hungary). The animals were divided into three groups. Each group consisted of 10 animals. The first group received 160 mg/kg of streptozotocin, i.p. (Sigma), the second group received 160 mg/kg of streptozotocin, and 200 mg/kg of the compound of Example 2 p.o., the third group served as the control. The blood glucose concentration was measured on the third day. The animals were killed, serum samples were taken for insulin determination, and pancreases were removed for histological studies. The blood glucose concentrations can be seen in Table 3.

Where a name gives a salt, the structure may show the parent alone.

T1 sequence (P27008 whole entry): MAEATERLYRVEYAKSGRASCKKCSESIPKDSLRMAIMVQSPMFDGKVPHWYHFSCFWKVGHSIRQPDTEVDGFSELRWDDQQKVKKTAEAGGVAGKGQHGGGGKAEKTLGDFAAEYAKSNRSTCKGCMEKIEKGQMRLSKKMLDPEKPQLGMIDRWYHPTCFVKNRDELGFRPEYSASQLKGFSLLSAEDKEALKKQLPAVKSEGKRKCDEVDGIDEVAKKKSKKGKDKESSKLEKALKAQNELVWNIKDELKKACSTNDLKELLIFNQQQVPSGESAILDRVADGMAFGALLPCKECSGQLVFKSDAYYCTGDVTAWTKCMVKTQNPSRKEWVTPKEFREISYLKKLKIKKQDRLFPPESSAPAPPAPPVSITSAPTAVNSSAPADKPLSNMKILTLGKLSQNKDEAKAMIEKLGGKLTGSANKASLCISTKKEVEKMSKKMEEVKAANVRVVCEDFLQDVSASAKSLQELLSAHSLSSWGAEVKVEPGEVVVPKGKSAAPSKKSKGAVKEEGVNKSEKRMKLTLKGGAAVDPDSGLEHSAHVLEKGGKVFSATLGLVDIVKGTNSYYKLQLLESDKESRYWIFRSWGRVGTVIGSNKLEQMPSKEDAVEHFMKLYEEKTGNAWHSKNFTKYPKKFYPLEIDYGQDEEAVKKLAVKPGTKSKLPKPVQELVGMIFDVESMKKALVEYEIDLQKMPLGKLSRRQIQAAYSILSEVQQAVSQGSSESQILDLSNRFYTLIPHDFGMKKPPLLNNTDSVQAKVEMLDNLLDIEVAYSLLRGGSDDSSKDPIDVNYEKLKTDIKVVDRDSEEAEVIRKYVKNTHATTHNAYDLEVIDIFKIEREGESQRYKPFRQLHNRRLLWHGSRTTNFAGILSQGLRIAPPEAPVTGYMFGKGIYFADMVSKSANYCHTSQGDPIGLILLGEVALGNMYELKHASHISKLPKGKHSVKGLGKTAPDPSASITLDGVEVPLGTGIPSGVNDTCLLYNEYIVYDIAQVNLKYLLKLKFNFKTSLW

Take `NC(C=Cc1cccnc1)=NOCC(O)CN1CCCCC1` (stereo not drawn) [Example 5, O-(3-Piperidino-2-hydroxy-propyl)-3-(3-Pyridyl)acrylic Acid Amidoxime Dihydrochloride]: in test [1], the “Activity (HSP-70 promoter luciferase)” value came out at 199. The IC50 in test [2] was 58.1 µM. In test [3], the responders at 5 mg/kg turned out to be 50%. In test [4] (read-out: Enzyme inhibition, %), the inhibition (in general, the change of the read-out against control, counted positive when it falls) at 1 µg/mL worked out at 52% and the inhibition at 2 µg/mL was 57%. Besides, in test [4], the “reverse transcriptase inhibiting effect compared with Nevirapin and AZT, in words” value was “higher than that of Nevirapin”.

Regarding `NC(C=Cc1ccccc1)=NOCCCN1CCCCC1` [Example 1, O-(3-Piperidino-propyl)-cinnamic Acid Amidoxime Dihydrochloride], in test [1], the “Activity (HSP-70 promoter luciferase)” value came to 107. Also, the IC50 in test [2] is 13.9 µM. In test [3], the responders at 1 mg/kg worked out at 70%; the responders at 5 mg/kg turned out to be 46%; the “effect on survival of reperfusion arrhythmia, in words” value was “similarly outstanding effect”. For the same molecule, in test [5], the “CPTI test in %” value was determined as 60.1 ± 2.1%. The inhibition at 0.2 µg/mL in test [4] (concentration 0.2 μg/ml, read-out: Enzyme inhibition, %) is 6%. Further, in test [4] (read-out: Enzyme inhibition, %), the inhibition at 0.5 µg/mL was 29% and the inhibition at 1 µg/mL came out at 44%.

Regarding `NC(C=Cc1cccnc1)=NOCCCN1CCCCC1` [Example 3, O-(3-Piperidino-propyl)-3-(3-Pyridyl)acrylic Acid Amidoxime Hydrochloride], the “Activity (HSP-70 promoter luciferase)” value in test [1] was 207. For the same molecule, the IC50 in test [2] is 8.32 µM. Also, the responders at 5 mg/kg in test [3] was 40%. For the same molecule, in test [5], the “CPTI test in %” value was 68.8 ± 3.2%. Further, in test [4] (read-out: Enzyme inhibition, %), the inhibition at 0.5 µg/mL is 7%, the inhibition at 1 µg/mL was found to be 45% and the inhibition at 2 µg/mL was 70%. Besides, the “reverse transcriptase inhibiting effect compared with Nevirapin and AZT, in words” value in test [4] was “higher than that of Nevirapin”.

Regarding `COc1ccc(C=CC(N)=NOCCCN2CCCCC2)cc1OC` [Example 2, O-(3-Piperidino-propyl)-3,4-Dimethoxycinnamic Acid Amidoxime Hydrochloride], the activity at 30 µg/mL in test [6] came out at 118%. Further, in test [2], the IC50 is 15 µM. For the same molecule, the “GLUCOSE (mean ± s.d.)” value in test [7] (160 mg/kg streptozotocin i.p. + 200 mg/kg compound p.o., blood, third day, control 4.78 ± 2.13) is reported as 8.16 ± 0.65. The “blood glucose concentration enhanced by streptozotocin, in words” value in test [7] (200 mg/kg p.o.) was “remarkably reduces the blood glucose concentration”. In addition, in test [3], the responders at 1 mg/kg was 41.7% and the responders at 5 mg/kg is 100%.

As for `NC(C=Cc1ccccc1)=NOCC(O)CN1CCCCC1` (stereo not drawn) [Example 4, O-(3-Piperidino-2-hydroxy-propyl)-cinnamic Acid Amidoxime Dihydrochloride], the activity at 30 µg/mL in test [6] stood at 118%. Besides, the “Activity (HSP-70 promoter luciferase)” value in test [1] is reported as 250. Also, the IC50 in test [2] was 27 µM. Also, in test [3], the responders at 1 mg/kg was 16.7%; the responders at 5 mg/kg worked out at 81.8%; the “effect on survival of reperfusion arrhythmia, in words” value is “similarly outstanding effect”. Also, the “reverse transcriptase inhibiting effect compared with Nevirapin and AZT, in words” value in test [4] was “higher than that of Nevirapin”.

For the origin of these results see patent US6500823B1, “Unsaturated hydroximic acid derivatives as per abstract inhibitors” (N-Gene Research Laboratories, Inc., priority 1998, dated 2002).
